The text below walks through data of patent US20250179103A1, “6-OXODECAHYDROPYRROLO[1,2-A][1,5]DIAZOCINE AND 6-OXODECAHYDRO-4H-PYRROLO[2,1-D][1,5]THIAZOCINE DERIVATIVES AS STAT3 AND STAT6 MODULATORS FOR THE TREATMENT OF CANCER AND INFLAMMATORY CONDITIONS” (Recludix Pharma, Inc., priority 2022, published 2025).

Assay [1] has as its target T1, Recombinant STAT6 protein (STAT6(W123-T658)) (Homo sapiens, UniProt P42226).
T1 construct: Recombinant STAT6 protein (STAT6(W123-T658))
T1 sequence (P42226 123-658): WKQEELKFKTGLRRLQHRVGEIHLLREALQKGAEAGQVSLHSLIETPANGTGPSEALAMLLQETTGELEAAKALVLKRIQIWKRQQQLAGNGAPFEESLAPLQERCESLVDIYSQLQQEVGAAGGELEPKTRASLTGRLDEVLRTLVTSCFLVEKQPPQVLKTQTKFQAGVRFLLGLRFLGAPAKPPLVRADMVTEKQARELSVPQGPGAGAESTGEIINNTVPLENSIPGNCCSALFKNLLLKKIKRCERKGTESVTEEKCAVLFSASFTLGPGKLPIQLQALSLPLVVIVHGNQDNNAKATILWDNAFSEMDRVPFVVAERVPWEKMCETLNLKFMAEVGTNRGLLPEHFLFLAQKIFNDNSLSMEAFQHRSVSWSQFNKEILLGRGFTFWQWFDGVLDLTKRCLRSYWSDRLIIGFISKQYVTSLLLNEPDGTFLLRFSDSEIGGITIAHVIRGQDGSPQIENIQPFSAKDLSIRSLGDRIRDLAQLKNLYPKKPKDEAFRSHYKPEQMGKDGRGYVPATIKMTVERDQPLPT
The experiment in a line: STAT6 Fluorescence Polarization (FP) Assay. It counts as binding. The note with it: STAT6(W123-T658) 250 nM, probe 5-FAM-ApYKPFQDLI-NH2 2 nM, 45-minute incubation. Summed up:
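Displacement of a fluorescent phosphotyrosine peptide (5-FAM-ApYKPFQDLI-NH2, 2 nM) from STAT6(W123-T658) (250 nM), 1% DMSO, pH 7.4 HEPES buffer. After 45 min at room temperature, polarization (mP) was plotted versus log compound concentration and fitted by nonlinear regression to give IC50.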

Assay [2] addresses T2, Recombinant STAT3 protein (STAT3(G127-I722)) (Homo sapiens, UniProt P40763).
T2 construct: Recombinant STAT3 protein (STAT3(G127-I722))
The experiment in a line: STAT3 Fluorescence Polarization (FP) Assay. It counts as binding. The note with it: STAT3(G127-I722) 25 nM, probe 5-FAM-GpYLPQTV-NH2 2 nM, 45-minute incubation. A digest of the protocol:
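Fluorescence polarization after a 45-min room-temperature incubation measured compound displacement of a 2 nM fluorescein-labelled phosphotyrosine peptide (5-FAM-GpYLPQTV-NH2) from 25 nM recombinant STAT3(G127-I722). Buffer was 10 mM HEPES pH 7.4 with 1% DMSO final. IC50s were fitted by nonlinear regression of mP against log concentration.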

A value given as a limit tells only on which side of the number the result lay.

As usually defined, the IC50 is the concentration at which inhibition is half-maximal.

T2 sequence (P40763 127-722): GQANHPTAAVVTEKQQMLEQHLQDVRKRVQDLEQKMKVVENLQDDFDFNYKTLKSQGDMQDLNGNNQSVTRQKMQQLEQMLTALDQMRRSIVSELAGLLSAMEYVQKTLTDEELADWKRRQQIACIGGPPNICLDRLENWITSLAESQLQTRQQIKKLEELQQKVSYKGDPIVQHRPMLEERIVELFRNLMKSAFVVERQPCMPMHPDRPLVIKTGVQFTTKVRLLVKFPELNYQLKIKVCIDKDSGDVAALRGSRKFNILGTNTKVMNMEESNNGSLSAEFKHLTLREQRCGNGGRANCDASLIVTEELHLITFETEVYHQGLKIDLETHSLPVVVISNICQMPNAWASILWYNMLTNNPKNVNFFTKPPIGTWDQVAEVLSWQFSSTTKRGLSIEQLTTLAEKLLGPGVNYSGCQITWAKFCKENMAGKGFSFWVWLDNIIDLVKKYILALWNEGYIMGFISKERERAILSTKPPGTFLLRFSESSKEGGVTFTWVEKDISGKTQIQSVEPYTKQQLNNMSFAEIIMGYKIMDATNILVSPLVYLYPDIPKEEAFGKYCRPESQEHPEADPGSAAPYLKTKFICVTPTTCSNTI

`CC(=O)N1CC[C@H]2CC[C@@H](C(=O)N(C)c3ccccc3)N2C(=O)[C@@H](NC(=O)c2nc3cc(C(F)(F)P(=O)(O)O)ccc3s2)C1` [Compound 115, ((2-(((5S,8S,10aR)-3-acetyl-8-(methyl(phenyl)carbamoyl)-6-oxodecahydropyrrolo[1,2-a][1,5]diazocin-5-yl)carbamoyl)benzo[d]thiazol-5-yl)difluoromethyl)phosphonic acid]: the results for the IC50 in assay [1] and in assay [2] were 300 to 3000 nM and greater than 10000 nM, respectively.

Consider `CC(=O)N1CC[C@H]2CC[C@@H](C(=O)N3CCOc4cc(-c5ccccc5)ccc43)N2C(=O)[C@@H](NC(=O)c2cc3cc(C(F)(F)P(=O)(O)O)ccc3s2)C1` [Compound 197, ((2-(((5S,8S,10aR)-3-acetyl-6-oxo-8-(7-phenyl-3,4-dihydro-2H-benzo[b][1,4]oxazine-4-carbonyl)decahydropyrrolo[1,2-a][1,5]diazocin-5-yl)carbamoyl)benzo[b]thiophen-5-yl)difluoromethyl)phosphonic acid], for which the IC50 lay in the range of 300 to 3000 nM in assay [1] and 100 to 1000 nM in assay [2].

Turning to `CC(=O)N1CC[C@H]2CC[C@@H](C(=O)N3CC(Oc4ccccc4)C3)N2C(=O)[C@@H](NC(=O)c2cc3cc(C(F)(F)P(=O)(O)O)ccc3[nH]2)C1` [Compound 99, ((2-(((5S,8S,10aR)-3-acetyl-6-oxo-8-(3-phenoxyazetidine-1-carbonyl)decahydropyrrolo[1,2-a][1,5]diazocin-5-yl)carbamoyl)-1H-indol-5-yl)difluoromethyl)phosphonic acid], the concentration for half-maximal inhibition (IC50) in assay [1] lay within 300 to 3000 nM; in assay [2], 100 to 1000 nM.

Take `CC(=O)N1CC[C@H]2CC[C@@H](C(=O)N3CCC4C3CN4c3ccccc3)N2C(=O)[C@@H](NC(=O)c2cc3cc(C(F)(F)P(=O)(O)O)ccc3s2)C1` (stereo partly drawn) [Compound 11, ((2-(((5S,8S,10aR)-3-acetyl-6-oxo-8-(6-phenyl-2,6-diazabicyclo[3.2.0]heptane-2-carbonyl)decahydropyrrolo[1,2-a][1,5]diazocin-5-yl)carbamoyl)benzo[b]thiophen-5-yl)difluoromethyl)phosphonic acid]: the figures for the 50% inhibitory concentration (IC50) in assay [1] and in assay [2] were 300 to 3000 nM and 100 to 1000 nM, respectively.

As to `O=C(N[C@H]1CN(C(=O)CCc2ccccc2)CC[C@H]2CC[C@@H](C(=O)Nc3ccc(-c4ccccc4)cc3)N2C1=O)c1cc2cc(C(F)(F)P(=O)(O)O)ccc2[nH]1` [Compound 215, ((2-(((5S,8S,10aR)-8-([1,1′-biphenyl]-4-ylcarbamoyl)-6-oxo-3-(3-phenylpropanoyl)decahydropyrrolo[1,2a][1,5]diazocin-5-yl)carbamoyl)-1H-indol-5-yl)difluoromethyl)phosphonic acid], the IC50 in assay [1] is no more than 300 nM; in assay [2] it was 100 to 1000 nM.

For `Cc1ccc2onc(C(=O)N3CC[C@H]4CC[C@@H](C(=O)N5C[C@@H](c6ccn(C)c(=O)c6)CC56CC6)N4C(=O)[C@@H](NC(=O)c4ccc5ccc(C(F)(F)P(=O)(O)O)cc5c4)C3)c2c1` [Compound 383, (difluoro(7-(((5S,8S, 10aR)-8-((R)-6-(1-methyl-2-oxo-1,2-dihydropyridin-4-yl)-4-azaspiro[2.4]heptane-4-carbonyl)-3-(5-methylbenzo[d]isoxazole-3-carbonyl)-6-oxodecahydropyrrolo [1,2-a][1,5]diazocin-5-yl)carbamoyl)naphthalen-2-yl)methyl)phosphonic acid], the 50% inhibitory concentration (IC50) in assay [1] was no more than 300 nM; in assay [2], 1000 to 10000 nM.

As to `CC(=O)N1CC[C@H]2CC[C@@H](C(=O)N3C[C@@H]4[C@H](C3)[C@H]3CS(=O)(=O)C[C@@H]43)N2C(=O)[C@@H](NC(=O)c2cc3cc(C(F)(F)P(=O)(O)O)ccc3s2)C1` [Compound 79, ((2-(((5S,8S,10aR)-3-acetyl-8-((3aR,3bS,6aR,6bS)-2,2-dioxidooctahydro-1H-thieno[3′,4′:3,4]cyclobuta[1,2-c]pyrrole-5-carbonyl)-6-oxodecahydropyrrolo[1,2-a][1,5]diazocin-5-yl)carbamoyl)benzo[b]thiophen-5-yl)difluoromethyl)phosphonic acid], the IC50 in assay [1] was in the range of 300 to 3000 nM; in assay [2] it was 100 to 1000 nM.

Turning to `CC(=O)N1C[C@H](NC(=O)[C@@H]2CC[C@@H]3CCN(Cc4ncccn4)C[C@H](NC(=O)c4cc5cc(C(F)P(=O)(O)O)ccc5s4)C(=O)N32)[C@@H](F)C1` (stereo partly drawn) [Compound 400, ((2-(((5S,8S,10aR)-8-(((3S,4S)-1-acetyl-4-fluoropyrrolidin-3-yl)carbamoyl)-6-oxo-3-(pyrimidin-2-ylmethyl)decahydropyrrolo[1,2-a][1,5]diazocin-5-yl)carbamoyl)benzo[b]thiophen-5-yl)fluoromethyl)phosphonic acid], the IC50 in assay [1] was 3000 to 30000 nM; in assay [2], 100 to 1000 nM.

Turning to `Cc1ccc2onc(C(=O)N3CC[C@H]4CC[C@@H](C(=O)N5C[C@H](c6ccn(C)c(=O)c6)CC56CC6)N4C(=O)[C@@H](NC(=O)c4ccc5ccc([C@@H](F)P(=O)(O)O)cc5c4)C3)c2c1` [Compound 391, ((S)-fluoro(7-(((5S, 8S,10aR)-8-((S)-6-(1-methyl-2-oxo-1,2-dihydropyridin-4-yl)-4-azaspiro[2.4]heptane-4-carbonyl)-3-(5-methylbenzo[d]isoxazole-3-carbonyl)-6-oxodecahydropyrrolo [1,2-a][1,5]diazocin-5-yl)carbamoyl)naphthalen-2-yl)methyl) phosphonic acid], the values for the half-inhibitory concentration (IC50) in assay [1] and in assay [2] were no more than 300 nM and greater than 10000 nM, respectively.

Consider `CC(=O)N1CC[C@H]2CC[C@@H](C(=O)N3C[C@@H](O)[C@H](n4ccnn4)C3)N2C(=O)[C@@H](NC(=O)c2ccc3ccc(C(F)(F)P(=O)(O)O)cc3c2)C1` (relative stereo) [Compound 5, ((7-(((5S,8S,10aR)-3-acetyl-8-((3R,4R)-3-hydroxy-4-(1H-1,2,3-triazol-1-yl)pyrrolidine-1-carbonyl)-6-oxodecahydropyrrolo[1,2-a][1,5]diazocin-5-yl)carbamoyl)naphthalen-2-yl)difluoromethyl)phosphonic Acid], for which the half-maximal inhibitory concentration (IC50) in assay [1] is 300 to 3000 nM; in assay [2], 1000 to 10000 nM.

As to `CC(=O)N1CC[C@H]2CC[C@@H](C(=O)Nc3ccc4cn(C)nc4c3)N2C(=O)[C@@H](NC(=O)c2cc3cc(C(F)(F)P(=O)(O)O)ccc3s2)C1` [Compound 157, ((2-(((5S,8S,10aR)-3-acetyl-8-((2-methyl-2H-indazol-6-yl)carbamoyl)-6-oxodecahydropyrrolo[1,2-a][1,5]diazocin-5-yl)carbamoyl)benzo[b]thiophen-5-yl)difluoromethyl)phosphonic acid], the results for the half-maximal inhibitory concentration (IC50) in assay [1] and in assay [2] were 300 to 3000 nM and 1000 to 10000 nM, respectively.

For the compound `Cc1ccc2[nH]nc(C(=O)N3CC[C@H]4CC[C@@H](C(=O)N(C)C)N4C(=O)[C@@H](NC(=O)c4cc5cc(CP(=O)(O)O)ccc5s4)C3)c2c1` [Compound 230, ((2-(((5S,8S,10aR)-8-(dimethylcarbamoyl)-3-(5-methyl-1H-indazole-3-carbonyl)-6-oxodecahydropyrrolo[1,2-a][1,5]diazocin-5-yl)carbamoyl)benzo[b]thiophen-5-yl)methyl)phosphonic acid], the IC50 in assay [1] is 3000 to 30000 nM; in assay [2] it was greater than 10000 nM.
